Measured values reported in ChEMBL document CHEMBL5620410, “Crystal structures of non-uracil ring fragments in complex with Mycobacterium tuberculosis uracil DNA glycosylase (MtUng) as a starting point for novel inhibitor design: A case study with the barbituric acid fragment” (Eur J Med Chem, 2023).

Key:
[1] = Inhibition of Mycobacterium tuberculosis Uracil-DNA glycosylase using 5'-FAM-CUUUUUGAGCTTTTGCTCAAAAAG-3'-BHQ-1 as substrate measured every 2 mins for 40 mins by fluorescence based analysis
[2] = Inhibition of Mycobacterium tuberculosis Uracil-DNA glycosylase using 5' 32P end-labelled uracil DNA containing oligomer (5'-ctcaagtgUaggcatgcttttgcatgcctgcacttga-3') as substrate preincubated with enzyme for 15 mins followed by incubation on ice for 5 mins and incubation at room temperature for 5 mins and later incubated with substrate for 15 mins by radioactivity based assay

Row | SMILES | IC50 [1] [µM] | IC50 [2] [µM]
1 | O=C(O)c1c[nH]c(=O)[nH]c1=O | 15900 | 2400
2 | O=C(O)c1[nH]c(=O)[nH]c(=O)c1F | 2930 | 2800
3 | COc1cc2nc(O)nc(O)c2cc1OC | 930 | 
4 | Oc1ncc(O)c(O)n1 | 2800 | 1200
5 | O=C1NC(=O)C(=Cc2ccc([N+](=O)[O-])cc2)C(=O)N1 |  | 1000
6 | COC(=O)COc1ccc(C=C2C(=O)NC(=O)NC2=O)cc1 | 330 | 500
7 | COC(=O)CCCOc1ccc(C=C2C(=O)NC(=O)NC2=O)cc1 |  | 3000
8 | COc1cccc(C=C2C(=O)NC(=O)NC2=O)c1 |  | 1900
9 | COC(=O)c1ccc(OCCOc2ccc(C=C3C(=O)NC(=O)NC3=O)cc2)cc1 |  | 1200
10 | COC(=O)c1cccc(OCCOc2ccc(C=C3C(=O)NC(=O)NC3=O)cc2)c1 |  | 2400
11 | COC(=O)c1ccccc1OCCCOc1ccc(C=C2C(=O)NC(=O)NC2=O)cc1 |  | 1600
12 | O=C1NC(=O)C(=Cc2ccc(OCCOc3ccccc3C(=O)O)cc2)C(=O)N1 | 1100 | 1900
13 | O=C1NC(=O)C(=Cc2ccc(OCCCOc3ccccc3C(=O)O)cc2)C(=O)N1 |  | 700
14 | COC(=O)c1ccccc1OCCOc1ccc(C=C2C(=O)NC(=O)NC2=O)cc1 |  | 100
15 | COC(=O)COc1ccccc1C=C1C(=O)NC(=O)NC1=O | 5550 | 
16 | COC(=O)COc1cccc(C=C2C(=O)NC(=O)NC2=O)c1 | 10400 | 
17 | COC(=O)c1ccc(OCCOc2ccccc2C=C2C(=O)NC(=O)NC2=O)cc1 |  | 3500
18 | COC(=O)CCCOc1ccccc1C=C1C(=O)NC(=O)NC1=O | 990 | 
19 | O=Cc1cc(=O)[nH]c(=O)[nH]1 | 6510 | 1000
20 | COC(=O)CCCOc1cccc(C=C2C(=O)NC(=O)NC2=O)c1 | 4200 | 
21 | COC(=O)c1ccccc1OCCOc1ccccc1C=C1C(=O)NC(=O)NC1=O | 1060 | 
22 | O=C1NC(=O)C(=Cc2ccc(Br)cc2)C(=O)N1 |  | 1500
23 | O=C1CC(=O)NC(=O)N1 [BARBITURIC ACID] | 7290 | 1000
24 | Cc1cc2nc3[nH]c(=O)[nH]c(=O)c3nc2cc1C [LUMICHROME] |  | 1500
25 | O=C(O)c1cc(=O)[nH]c(=O)[nH]1 [OROTIC ACID] | 14200 | 2300
26 | O=C1CSC(=O)N1 [THIAZOLIDINEDIONE] | 17300 | 
27 | O=c1cc[nH]c(=O)[nH]1 [URACIL] | 2050 | 800
28 | Oc1nc(O)c2nc(O)[nH]c2n1 [URIC ACID] | 16400 | 1700
